≈ marks a conversion by molar mass, not a printed value. Where “and” joins values, the source holds several entries; their conditions need not be identical. Identical values can stand only once. Like-named read-outs stand apart in the source and are kept apart here.
Assays:
[1] = tested on: malarial strain W2 (pyrimethamine and chloroquine-resistant); assay: in vitro antimalarial activity against multidrug resistant strain W2; type: cell-based, P. falciparum; settings: Plasmodium falciparum
[2] = tested on: malarial strain TM90-C2B (mefloquine, chloroquine, atovaquone, and pyrimethamine-resistant); assay: microbe, parasite or virus in culture; type: cell-based, P. falciparum; settings: for EC50: Plasmodium falciparum, TM90, read-out: EC50 TM90-C2B (nM)
Source text: Ideally, the RI of a compound should lie between 0.3 and 3.0 in order to avoid rapidly inducing resistance in the parasite. […]

[3] = tested on: J774 mammalian cells; assay: cytotoxicity to J774 cells; type: cell-based; settings: Mus musculus, J774, read-out: EC50 J774 (μM)
Experimental: This allowed a simplified method for comparing the different assays being simultaneously run. Additionally, each compound was also tested for cytotoxicity using mammalian J774 cell lines in a 96-well plate format.^12-14, 16

[4] = aqueous solubility (LC/MS- or HPLC-based assay); type: physicochemical
Summary of the method: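 Aqueous solubility and log D (pH 7.4) determined by LC/MS-based assays; solubility examined at more than one pH.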

[5] = lipophilicity log D at pH 7.4; type: physicochemical; settings: octanol/water
Source text: Furthermore, to profile the properties of the piperazinyl-4(1H)-quinolones, and to identify potential limitations, aqueous solubility and lipophilicity log D were experimentally determined via LC/MS-based assays as described by the Manetsch laboratory previously^8,10,31,32 (Tables 9-12). Encouragingly, the piperazinyl-4(1H)-quinolones were much more soluble than the previously described phenoxyethoxy-4(1H)-quinolone analogues.^19 As expected, the solubility of all compounds was affected by pH, with better solubility under more acidic conditions.
In parallel to testing the compounds for in vitro antimalarial activity, a limited structure-property relationship (SPR) study focusing on log D and aqueous solubility was conducted to assess potential physiochemical liabilities (FIG. 22). […] For these reasons, physicochemical properties were not strongly considered as selection criteria for in vivo efficacy studies.

[6] = tested on: P. berghei-GFP parasites; assay: modified Thompson test; type: in vivo, P. berghei; mice; settings: 10 mg/kg oral on days 3, 4 and 5 PI; for No. of Cures: survival to day 30 PI with parasitemia <1%
Experimental: Mice were infected with 1×10^6 P. berghei-GFP parasites and compounds were dosed orally on days 3, 4 and 5 PI with a dose of 10 mg/kg of compound suspended or dissolved in HEC/Tween or PEG 400. Parasitemia was observed by flow cytometry on days 3, 6, 9, 13, 21, and 30 PI. Compounds with animal survival up to day 30 PI and parasitemia levels of less than 1% on day 30 PI were considered to be cures. Lastly, animals with more than 40% parasitemia levels were euthanized.
On days 3, 6, 9, 13, 21, and 30 PE, parasitemia was monitored by Giemsa-stained blood smears. Both compounds were evaluated by the reduction of parasitemia on day 6 PE and the survival up to day 30 PE.

[7] = tested on: P. berghei sporozoites expressing luciferase; assay: in vitro liver stage activity, luciferase sporozoites infecting HEPG2 hepatoma cells; type: cell-based; settings: Plasmodium berghei, HEPG2 cells
[8] = tested on: P. berghei sporozoite infected mice; assay: in vivo efficacy against liver stages, bioluminescence imaging; settings: for % Inhibition Day 9 PI: single dose 1 hour after infection; for protection by bioluminescence imaging: 44 h, day 6, 9 and 13 PI, 25, 50, 100 mg/kg oral or subcutaneous, result in words
Experimental: Animals (n=5 per group) received a single dose by gavage 1 hour after inoculation with sporozoites. Representative images taken at 44 h, day 6, day 9, and day 13 after infection are shown. At 44 h, bioluminescent signal was detected in control untreated animals, with the highest intensity noted in the area overlaying the liver, consistent with the presence of liver-stage parasites.
At 44 h PI, day 6 PI, day 9 PI, and day 13 PI, compound efficacy was determined by bioluminescence imaging via injection of D-luciferin. Both compounds were administered orally or subcutaneously at increasing doses of 25 mg/kg, 50 mg/kg, and 100 mg/kg in PEG 400. […] Progression of parasitemia was monitored up to 30 days after infection (Table 8).

[9] = tested on: Pb-infected mice; assay: in vivo efficacy scouting assay against blood stages; design: species or system P. berghei; mice; settings: for inhibition in vivo at 50 mg/kg: Plasmodium berghei, 144 h, read-out: % Inhibition Day 6 PI; for activities in these scout assays: result in words
Experimental: The screening involved a single oral 50 mg/kg dose 1 day post infection (PI) and an assessment of parasitemia on days 3 PI and 6 PI (Table 6).
The screening was performed by treating two infected mice with a single 50 mg/kg oral dose of test compound suspended in PEG400 on day 1 postexposure (PE) followed by assessing parasitemia on days 3 and 6 PE.

[10] = aqueous medium, pH 2, simulated gastric fluid, pH 2.0, read-out: Solubility pH 2.0
[11] = aqueous medium, pH 6.5, aqueous buffer, pH 6.5, read-out: Solubility pH 6.5
[12] = single oral 50 mg/kg dose 1 day PI, vs untreated animals
[13] = aqueous solution, pH 2, simulated gastric fluid, pH 2.0, read-out: Solubility pH 2.0
[14] = aqueous solution, pH 6.5, aqueous buffer, pH 6.5, read-out: Solubility pH 6.5
[15] = single oral 50 mg/kg dose 1 day PI

In the case of `Cc1[nH]c2cc(CN3CCN(c4ccc(F)cc4)CC3)ccc2c(=O)c1Cl` [Compound 8ao, 3-Chloro-7-((4-(4-fluorophenyl)piperazin-1-yl)methyl)-2-methylquinolin-4(1H)-one], the EC50 ([1]; read-out: EC50 W2 (nM)) is reported as 38.5 nM, the EC50 [2] is reported as 52.1 nM and the EC50 [3] is reported as over 20 µM. The solubility ([4]; aqueous solution (buffer not named), pH 2, simulated gastric fluid, pH 2.0, read-out: Solubility pH 2.0) was at least 80 µM, the solubility ([4]; aqueous solution (buffer not named), pH 6.5, aqueous buffer, pH 6.5, read-out: Solubility pH 6.5) was 1 to 19.9 µM (≈ 0.386 to 7.68 µg/mL) and the chromatographic logD [5] was 2.73. For the same molecule, the “No. of Cures” value [6] was 0/5 and the “% Inhibition Day 6 PI” value ([6]; vs untreated control animals) was “low inhibition”.

In the case of `COC(=O)c1c[nH]c2cc(CN3CCN(c4ccccc4)CC3)ccc2c1=O` [Compound 8j, Methyl 4-oxo-7-((4-phenylpiperazin-1-yl)methyl)-1,4-dihydroquinoline-3-carboxylate], the EC50 ([1]; read-out: EC50 W2 (nM)) is reported as 1.25 nM, the EC50 [2] is reported as 483 nM and the EC50 [7] is reported as 4.74 nM. It also gave a solubility [4, 10] of at least 80 µM, a solubility [4, 11] of at least 80 µM and a chromatographic logD [5] of 0.86. For the same molecule, the “No. of Cures” value ([8]; 25 mg/kg oral) was 2/5, the “% Inhibition Day 9 PI” value ([8]; 25 mg/kg oral) was 65.3% and the “No. of Cures” value ([8]; 50 mg/kg oral) was 2/5. The “% Inhibition Day 9 PI” value ([8]; 50 mg/kg oral) was 85.1%, the “No. of Cures” value ([8]; 50 mg/kg subcutaneous) was 3/5 and the “% Inhibition Day 9 PI” value ([8]; 50 mg/kg subcutaneous) was over 99.0%. The “No. of Cures” value ([8]; 100 mg/kg oral) was 5/5, the “% Inhibition Day 9 PI” value ([8]; 100 mg/kg oral) was over 99.0% and the “protection by bioluminescence imaging” value [8] was “no luminescence was observed”. For the same molecule, the “animals cured (survival curves)” value ([8]; over all doses tested, 25-100 mg/kg) was “two or more out of five”.

With `COC(=O)c1c[nH]c2cc(CN3CCN(Cc4ccc(OC)cc4)CC3)ccc2c1=O` [Compound 8l, Methyl 7-((4-(4-methoxybenzyl)piperazin-1-yl)methyl)-4-oxo-1,4-dihydroquinoline-3-carboxylate] the EC50 ([1]; read-out: EC50 W2 (nM)) was 2.5 nM, the EC50 [2] was 799 nM and the EC50 [7] was 83.4 nM. It also gave a solubility [4, 10] of at least 80 µM, a solubility [4, 11] of at least 80 µM and a chromatographic logD [5] of 1.66. For the same molecule, the inhibition in vivo at 50 mg/kg [9, 12] was about 40%, the “No. of Cures” value ([8]; 25 mg/kg oral) was 0/5 and the “% Inhibition Day 9 PI” value ([8]; 25 mg/kg oral) was 49.1%. For the same molecule, the “No. of Cures” value ([8]; 50 mg/kg oral) was 0/5, the “No. of Cures” value ([8]; 50 mg/kg subcutaneous) was 0/5 and the “% Inhibition Day 9 PI” value ([8]; 50 mg/kg subcutaneous) was 20.1%. For the same molecule, the “No. of Cures” value ([8]; 100 mg/kg oral) was “one of five and 1/5” and the “protection by bioluminescence imaging” value [8] was “full protection at all time points only at an oral dose of 100 mg/kg”.

`COC(=O)c1c[nH]c2cc(CN3CCN(c4ccc(C(F)(F)F)cc4)CC3)c(C)cc2c1=O` [Compound 8v, Methyl 6-methyl-4-oxo-7-((4-(4-(trifluoromethyl)phenyl)piperazin-1-yl)methyl)-1,4-dihydroquinoline-3-carboxylate] gave an EC50 ([1]; read-out: EC50 W2) of 0.066 nM, an EC50 ([1]; read-out: EC50 W2 (nM)) of 0.066 nM and an EC50 [2] of 101 nM. For the same molecule, the RI ([2]; RI = EC50 TM90-C2B/EC50 W2) was 1530, the EC50 [3] was over 20 µM and the solubility [4, 13] was at least 80 µM. It also gave a solubility [4, 14] of 1 to 19.9 µM (≈ 0.459 to 9.14 µg/mL), a chromatographic logD [5] of 3.73 and an inhibition in vivo at 50 mg/kg ([9]; po) of over 85%. For the same molecule, the “activities in these scout assays” value [9, 15] was “excellent activities”, the “% Inhibition Day 3 PI” value [9, 12] was “full inhibition” and the “% Inhibition Day 6 PI” value [9, 12] was “completely inhibited parasite growth”. The “No. of Cures” value [6] was 3 of the 5 and 3/5.

For `COC(=O)c1c[nH]c2cc(CN3CCN(c4ccc(OC)cc4)CC3)c(OC)cc2c1=O` [Compound 8z, Methyl 6-methoxy-7-((4-(4-methoxyphenyl)piperazin-1-yl)methyl)-4-oxo-1,4-dihydroquinoline-3-carboxylate], the EC50 ([1]; read-out: EC50 W2 (nM)) was 3.38 nM, the EC50 [2] was 861 nM and the EC50 [7] was 10.4 nM. For the same molecule, the EC50 [3] was 15.7 µM, the solubility [4, 13] was at least 80 µM and the solubility [4, 14] was at least 80 µM. The chromatographic logD [5] was 2.19, the “activities in these scout assays” value [9, 15] was “excellent activities” and the “% Inhibition Day 6 PI” value [9, 12] was 70.6%.

With `COc1cc(NC(C)CCCN)c2ncccc2c1` (centres unmarked) [Primaquine, reference compound] the “No. of Cures” value ([8]; 50 mg/kg oral) was 2/5 and the “% Inhibition Day 9 PI” value ([8]; 50 mg/kg oral) was over 99.0%.

Reference: patent US10000452B1, “Quinolone-based compounds, formulations, and uses thereof” (University of South Florida, priority 2016, dated 2018)
